Data from US8517736B2, “Method for alleviating the undesired side effects of dental bleaching” (Dr. Gunnar Rolla Consultant AS, priority 2011, dated 2013).
Where two headings read alike, the source gives them in different places.

Key:
[1] = SEM micrographs of bleached human tooth enamel surface; details: human tooth enamel after bleaching with peroxide
Source text: FIG. 2: A SEM micrograph showing the same tooth surface (from FIG. 1) covered with a film of dehydrated Ca(OH)2.
FIG. 3: A SEM micrograph showing the same tooth surface (from FIG. 2) subsequently treated with 2% by weight NaF-solution.

[2] = test system: hypersensitive bleached front teeth
Protocol: A volunteer had performed a self-bleaching procedure on their teeth, using a home kit. They complained and described their front teeth as extremely sensitive for changes of temperature in drinks or food. The teeth were rinsed carefully with water at room temperature, and isolated with cotton rolls. The teeth were kept dry and then treated with a generous amount of a saturated aqueous solution of Ca(OH)2, at an acceptable temperature, for a period of about 5 minutes. After a few additional minutes the cotton rolls were removed, and treatment with an aqueous solution of 2.0% by weight of NaF was performed, to induce formation CaF2, to stabilize the calcium added.

[3] = saturated, or less than saturated, aqueous solutions

SMILES | enamel surface appearance after bleaching (SEM, FIG. 1) [1] | tooth colour after treatment ([2]; after saturated Ca(OH)2 then 2.0% NaF treatment) | reappearance of sensitivity after treatment ([2]; follow-up after saturated Ca(OH)2 then 2.0% NaF treatment) | hypersensitivity of bleached teeth after treatment ([2]; volunteer, saturated aqueous Ca(OH)2 about 5 minutes, followed by aqueous 2.0% by weight NaF) | pH [3] | pH ([3]; listed as calcium hydroxide)
OO [peroxide, hydrogen peroxide] | pitted and damaged by demineralization | – | – | – | – | –
[Ca+2].[OH-].[OH-] [Ca(OH)2, calcium hydroxide] | – | maintained an acceptable colour | sensitivity has not reappeared | hypersensitivity was eliminated | > 10 | 14
